For data set [1], the system named is Human Liver Microsomes. Kind of data set: in vitro. The method, then:
(§1) In all cases examined, product formation was directly determined by HPLC analysis of organic extracts.
(§2) Human liver samples were obtained from the Department of Surgery (UCSF) and with a protocol from the Medical College of Wisconsin (S. Wrighton).
(§3) A typical incubation mixture (final volume 0.25 ml) contained hepatic microsomes (0.4 mg of protein) or bacterial lysate (2.3 mg of protein), NADP^+ (0.5 mM), glucose-6-phosphate (2.0 mM), glucose-6-phosphate dehydrogenase (1 IU), DETAPAC (0.8 mM) and potassium phosphate buffer (50 mM, pH 8.4). Reactions were initiated by the addition of substrate and terminated at designated times by the addition of three volumes of cold dichloromethane, mixed thoroughly and centrifuged to separate the aqueous and organic fractions. N- and S-oxide metabolic products in the resulting organic extracts were separated and quantified by HPLC. […] Thiobenzamide and thiobenzamide S-oxide were quantified with this same, HPLC system employing a mobile phase of methanol/acetonitrile/60% perchloric acid (20:80:0.016, v/v) which gave retention volumes of 2.7 and 7.0 ml, respectively. […] The major metabolites formed in the incubations were also subjected to mass spectral analysis after extraction of isolated HPLC fractions.
(§4) RPLC of the S-oxide diastereomers with a Chiracel OT chiral analytical column (25 cm×0.15 cm inner diameter, Daicel Chemical Co., New York, N.Y.) was accomplished with a Beckman system, Kratos UV detector (240 nm) and a Hewlett Packard Integrator. […] Quantification was accomplished by comparing integrated HPLC peak areas after taking into account the difference in the extinction coefficients at 240 nm. Likewise, the cis and trans S-oxide diasteromers of (+)- and (−)-2-methyl-1,-benzodithiole were separated with a Chiracel OT chiral analytical column.

Data set [2] deals with T1, adult human liver flavin-containing monooxygenase (form 3) (Homo sapiens, UniProt P31513, E158K).
T1 sequence (P31513 1-532 E158K): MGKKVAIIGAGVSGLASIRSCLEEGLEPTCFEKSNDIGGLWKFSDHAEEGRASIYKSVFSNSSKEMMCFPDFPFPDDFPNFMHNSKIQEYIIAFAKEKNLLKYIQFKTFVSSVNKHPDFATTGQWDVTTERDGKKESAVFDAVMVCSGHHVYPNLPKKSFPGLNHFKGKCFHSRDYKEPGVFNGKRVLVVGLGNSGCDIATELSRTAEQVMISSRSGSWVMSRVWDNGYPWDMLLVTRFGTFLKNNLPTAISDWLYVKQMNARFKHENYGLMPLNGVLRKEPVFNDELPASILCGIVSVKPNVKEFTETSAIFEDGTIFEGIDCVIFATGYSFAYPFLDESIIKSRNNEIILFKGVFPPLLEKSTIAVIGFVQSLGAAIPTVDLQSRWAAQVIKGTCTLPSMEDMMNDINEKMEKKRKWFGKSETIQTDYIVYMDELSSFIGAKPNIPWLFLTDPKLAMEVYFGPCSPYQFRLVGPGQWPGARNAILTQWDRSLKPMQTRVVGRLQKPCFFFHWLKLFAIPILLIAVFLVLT
Kind of data set: N- and S-oxygenation by cDNA-expressed HLFMO 3 (solubilized protein from E. coli transformed with pTrcHLFMO 3), HPLC. As to conditions: for Vmax, Expressed HLFMO / Km: N- or S-oxide formation, for the 4-bromophenyl-1,3-oxathiolanes formation of the trans S-oxide; for Km: read-out: Km, Expressed HLFMO. The method, then:
as §1
Competent NM522 Escherichia coli cells were transformed with the pTrc HLFMO 3 plasmid. […] After inoculation with a fresh overnight culture of NM522 containing pTrcHLFMO 3, the culture was grown at 37° C. until Abs600 was approximately 0.5 absorbance units. Finally, IPTG (0.8 mM) was added to the culture to induce expression of protein and the culture was left to grow overnight at 37° C.
The bacterial pellet was resuspended in 5 volumes of 50 mM potassium phosphate buffer (pH 8.4) containing 1% Triton X-100, 0.1% L-, α-phosphatidylcholine (L-α-lecithin) from egg yolk, 500 μM PMSF, and 1 mM EDTA. The mixture was sonicated and then centrifuged to remove cellular debris. As a control, bacterial lysate extracts from IPTG-induced pTrc99A-transformed NM522 cells (i.e., pTrc99A without the HLFMO 3 cDNA insert) were prepared under the same conditions.
as §2, §3, §4

Data set [3] addresses T2, lys158-HFMO3-MBP (Homo sapiens, UniProt P31513, E158K).
T2 sequence (P31513 2-532 E158K): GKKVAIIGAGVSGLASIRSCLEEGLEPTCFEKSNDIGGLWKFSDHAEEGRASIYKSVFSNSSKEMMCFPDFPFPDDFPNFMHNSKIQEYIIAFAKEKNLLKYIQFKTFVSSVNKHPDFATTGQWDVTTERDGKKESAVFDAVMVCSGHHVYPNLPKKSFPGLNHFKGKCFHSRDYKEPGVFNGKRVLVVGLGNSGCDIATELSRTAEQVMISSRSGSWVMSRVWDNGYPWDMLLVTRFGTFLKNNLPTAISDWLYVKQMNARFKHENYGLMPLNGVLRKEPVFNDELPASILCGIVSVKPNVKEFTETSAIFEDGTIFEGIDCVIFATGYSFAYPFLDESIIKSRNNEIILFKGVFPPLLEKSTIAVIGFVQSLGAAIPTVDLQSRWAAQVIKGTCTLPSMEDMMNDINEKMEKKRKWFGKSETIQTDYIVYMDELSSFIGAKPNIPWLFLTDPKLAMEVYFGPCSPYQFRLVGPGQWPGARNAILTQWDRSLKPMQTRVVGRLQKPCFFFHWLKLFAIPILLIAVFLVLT
Kind of data set: Substrate oxygenation by lys158-HFMO3-MBP fusion protein, HPLC. As to conditions: human, 15 min, 200 µM, pH 9. On the procedure:
(§5) For HFMO3-MBP assay, all HFMO3-MBP incubations were done as follows: Into a test tube was added DETAPAC (1.2 mM, final concentration for a 250 μl reaction) followed by the addition of 60 μl NADPH generating system (0.4 mM NADP, 0.4 mM glucose-6-phosphate, and 20 μl of a 50 units mI^−1 glucose-6-phosphate dehydrogenase). The tube was chilled on ice and buffer and enzyme were added as described below for individual experiments to give a volume of 240 μl. The incubation was initiated by the addition of 5-DTP (10 μl of 5 mM) and placed in a shaking water bath at 37° C. for 10 min (unless specified otherwise). The incubation was stopped by the addition of 1.0 ml of ice-cold CH2Cl2. Following the addition of sodium carbonate (approx. 20 mg), the culture tube was vortexed, centrifuged (2000×g, 10 min), and the organic layer was removed and transferred to a 1.5 ml microfuge tube. The organic solvent was evaporated under a stream of Ar(g) to dryness and the residue was taken up in MeOH (300 μl) for determination HPLC analysis.
(§6) Data was analyzed with a Hitachi D-2500 integrator.
(§7) MTS-oxygenation assays were carried out under the same buffer, temperature, time and volume conditions, as for the N-oxygenation assays. The reactions were initiated upon addition of 10 μl of a 5 mM solution of MTS. The reaction was quenched with the addition of 700 μl of 80% CH3CN:20% hexane then 20 mg NaCl(s) and vortexed vigorously for 10 sec. The quenched reactions were then centrifuged briefly to separate the phases. The organic layer, containing product and substrate, was removed and used directly for HPLC analysis.
(§8) All other instruments used were the same as above for the N-oxygenation reactions. Conditions for elution were 50% CH3CN/H2O (v:v) with a flow rate gradient as follows: 1.5 ml min^−1 from 0 to 4 min., 1.5-2.5 ml min^−1 from 4 to 5 min, 2.5 ml min^−1 from 5 to 15 min.
Trimethylamine is commonly ingested in foodstuffs or it is available in the diet of humans from choline and other sources. Trimethylamine (TMA) is exclusively eliminated in humans by metabolism to trimethylamine N-oxide (TMANO). […] Thus, urinary TMANO formation provides a simple, reliable and direct assay of FMO3 activity in adult humans. Analysis of TMA to TMANO ratios provides a direct means of phenotyping adult humans for FMO3 activity. Phenotyping FMO3 activity in humans would provide a simple means of evaluating the relationship between the presence of FMO3 and various disease conditions. […]

The target of data set [4] is T3, glu158-HFMO3-MBP (Homo sapiens, UniProt P31513).
T3 sequence (P31513 2-532): T2 sequence (P31513 2-532 E158K) with K157E
Put plainly: Substrate oxygenation by glu158-HFMO3-MBP fusion protein, HPLC. As to conditions: human, 15 min, 200 µM, pH 9. On the procedure:
as §5, §6, §7, §8
Trimethylamine is commonly ingested in foodstuffs or it is available in the diet of humans from choline and other sources. Trimethylamine (TMA) is exclusively eliminated in humans by metabolism to trimethylamine N-oxide (TMANO). […]

The record followed here is US6762052B1, “DNA sequence encoding flavin-containing monooxygenase” (priority 1993, dated 2004).

Where a chain is given by its changes, count along the chain named. Read-outs that look alike come from different tables or passages of the source.

In the case of `CC1Sc2ccccc2S1` [2-Methyl-1,3-Benzodithiole, 2-Methyl-1,3-benzodithiole], in data set [1] (human, 0.5 mM, pH 8.4), the “S-oxide product cis (+)-(1R,2S), % Diastereomer” value is listed as 28.2%; the “S-oxide product cis (+)-(1R,2S), amount formed” value is on record as 176 ± 34 pmol/min/mg of protein; the “S-oxide product cis (-)-(1S,2R), % Diastereomer” value is recorded as 12.3%; the “S-oxide product cis (-)-(1S,2R), amount formed” value was 77 ± 27 pmol/min/mg of protein. In data set [1] (human, 0.5 mM, pH 8.4), the “S-oxide product trans (+)-(1R,2R), % Diastereomer” value is on record as 59.5% and the “S-oxide product trans (+)-(1R,2R), amount formed” value was 372 ± 35 pmol/min/mg of protein. In addition, in data set [2] (human, 0.5 mM, pH 8.4), the “S-oxide product cis (+)-(1R,2S), % Diastereomer” value was determined as 48.6%; the “S-oxide product cis (+)-(1R,2S), amount formed” value is 54 ± 22 pmol/min/mg of protein; the “S-oxide product cis (-)-(1S,2R), % Diastereomer” value is reported as 19.8%; the “S-oxide product cis (-)-(1S,2R), amount formed” value is 22 ± 2 pmol/min/mg of protein. In data set [2] (human, 0.5 mM, pH 8.4), the “S-oxide product trans (+)-(1R,2R), % Diastereomer” value was 31.5% and the “S-oxide product trans (+)-(1R,2R), amount formed” value is 35 ± 27 pmol/min/mg of protein.
With `CN(C)CCCN1c2ccccc2Sc2ccc(Cl)cc21` [Chlorpromazine, chlorpromazine], in data set [1] (human, 0.1 mM, pH 8.4), the “N-oxide formation, Human Liver Microsomes” value was 58.9 ± 7.4 pmol/min/mg of protein and the “S-oxide formation, Human Liver Microsomes” value is listed as 29.3 ± 3.7 pmol/min/mg of protein. Also, in data set [2], the “substrate activity for human liver microsomes and expressed HLFMO 3, in words” value (shortened to “substrate activity”) is given as “detectable”. Further, the “N-oxide formation, Expressed HFLMO” value in data set [2] (human, 0.1 mM, pH 8.4) is on record as 10.2 ± 1.2 pmol/min/mg of protein.
What is called Km is the concentration of substrate that gives half-maximal velocity. In the case of “(−)-4-bromophenyl-1,3-oxathiolane [(-)-4-Bromophenyl-1,3-oxathiolane]”, in data set [1], the Km was 166 µM; the “Vmax, Human Liver Microsomes” value is 5.2 nmol/min/mg of protein; the “trans S-oxide formation rate, Human Liver Microsomes” value is given as 2.4 ± 0.9 nmol/min/mg of protein; the “trans S-oxide, % of S-oxide product, Human Liver Microsomes” value is given as 100%. Further, in data set [2], the “substrate activity” value is reported as “excellent substrates”; the “trans S-oxide formation rate, Expressed HLFMO” value is on record as 0.7 ± 0.1 nmol/min/mg of protein; the “trans S-oxide, % of S-oxide product, Expressed HLFMO” value is 100%; the “Vmax, Expressed HLFMO” value is given as 2.94 nmol/min/mg of protein. In addition, the Km in data set [2] was 311 µM.
Regarding (+)-4-bromophenyl-1,3-oxathiolane, in data set [1], the Km turned out to be 50 µM; the “Vmax, Human Liver Microsomes” value was 2.87 nmol/min/mg of protein; the “cis S-oxide formation rate, Human Liver Microsomes” value is listed as “(5.3 ± 0.9) nmol/min/mg of protein”; the “cis S-oxide, % of S-oxide product, Human Liver Microsomes” value is listed as 40.4%. Further, in data set [1], the “trans S-oxide formation rate, Human Liver Microsomes” value is 7.8 ± 1.7 nmol/min/mg of protein and the “trans S-oxide, % of S-oxide product, Human Liver Microsomes” value is 59.5%. In data set [2], the “cis S-oxide, % of S-oxide product, Expressed HLFMO” value was 38.5%; the “substrate activity” value is recorded as “excellent substrates”; the “trans S-oxide formation rate, Expressed HLFMO” value was 0.8 ± 0.2 nmol/min/mg of protein; the “trans S-oxide, % of S-oxide product, Expressed HLFMO” value worked out at 61.4%. Also, in data set [2], the “Vmax, Expressed HLFMO” value is on record as 0.180 nmol/min/mg of protein and the Michaelis constant (Km) turned out to be 142 µM.
In the case of `CN(C)CCCCCCN1c2ccccc2Sc2ccc(C(F)(F)F)cc21` [Compound 6], in data set [2] (human liver microsomes and solubilized protein from E. coli transformed with pTrcHLFMO 3), the “substrate activity” value is listed as “better substrates”. Moreover, the “pH-optimum for tertiary amine N-oxygenation” value in data set [2] (microsomal protein and expressed HLFMO 3 gave virtually identical pH-rate profiles) is “approximately 10”. The “midpoint of the pH-rate profile of N-oxygenation” value in data set [2] (microsomes and expressed HLFMO 3) is ~9.5.
In the case of `CSc1ccc(C)cc1` [MTS, methyl p-tolyl sulfide], the results for the “relative activity towards the sulfide, MTS vs. 5-DTP activity” value in data set [3] and in data set [4] were 4.9 fold and 20 fold, respectively.
As for 4-bromophenyl-1,3-oxathiolane, the “pH of maximum S-oxygenase activity” value in data set [2] (in the presence of microsomes and expressed HLFMO 3) is given as ~8.5.
